# Test results: ChEMBL document CHEMBL3885861, “Open TG-GATES”
# Species on record: Rattus norvegicus
# Assay: Open TG-GATES - Regimen: Single
# Type: toxicity, organism-based, Sprague-Dawley
# Parameters: regimen Single, gender Male, age 6 weeks
# Conditions: in vivo, po, route gavage; for Hb / Ht / Lym / MCH / MCHC / MCV / Mono / Neu / PT / Plat / RBC / Ret / WBC / APTT / Bas / Eos / Fbg: tissue Blood; for KIDNEY_L / KIDNEY_R / KIDNEY_TOTAL: tissue Kidney; for LIVER: tissue Liver; for ALP / ALT / AST / BUN / CRE / Ca / Cl / DBIL / GLC / IP / K / LDH / Na / PL / RALB / TBIL / TC / TP / gamma-GTP: tissue Plasma
# [1] = 50 mg/kg, 6 h, dose level Middle
# [2] = 50 mg/kg, 9 h, dose level Middle
# [3] = 50 mg/kg, 24 h, dose level Middle
# [4] = 150 mg/kg, 3 h, dose level High
# [5] = 150 mg/kg, 6 h, dose level High
# [6] = 150 mg/kg, 9 h, dose level High
# [7] = 150 mg/kg, 24 h, dose level High
compound,measurement,setting,value
O=P1(N(CCCl)CCCl)NCCCO1 (configuration not stated) [CYCLOPHOSPHAMIDE ANHYDROUS],Hb,[1],12.8 g/dL
same,Ht,[1],37.8%
same,Lym,[1],73.2%
same,MCH,[1],21.1 pg
same,MCHC,[1],33.7%
same,MCV,[1],62.7 fL
same,Mono,[1],2.6%
same,Neu,[1],22.8%
same,PT,[1],14.2 s
same,Plat,[1],115.3 x10_4/uL
same,RBC,[1],603.6 x10_4/ul
same,Ret,[1],8.9%
same,WBC,[1],84.9 x10_2/uL
same,KIDNEY_L,[1],0.9 g
same,KIDNEY_R,[1],0.8 g
same,KIDNEY_TOTAL,[1],1.7 g
same,LIVER,[1],7.5 g
same,ALP,[1],1677 IU/L
same,ALT,[1],35 IU/L
same,AST,[1],72.8 IU/L
same,BUN,[1],9.6 mg/dL
same,CRE,[1],0.2 mg/dL
same,Ca,[1],10.9 mg/dL
same,Cl,[1],106.2 meq/L
same,DBIL,[1],0.016 mg/dL
same,GLC,[1],171.6 mg/dL
same,IP,[1],9.9 mg/dL
same,K,[1],4.4 meq/L
same,LDH,[1],65 IU/L
same,Na,[1],141.4 meq/L
same,PL,[1],134 mg/dL
same,RALB,[1],2.5 g/dL
same,TBIL,[1],0.064 mg/dL
same,TC,[1],72.2 mg/dL
same,TP,[1],5.4 g/dL
same,gamma-GTP,[1],1.4 IU/L
same,TERMINAL_BW,[2],187.4 g
same,APTT,[2],17.8 s
same,Bas,[2],0%
same,Eos,[2],1%
same,Fbg,[2],284.8 mg/dL
same,Hb,[2],12.7 g/dL
same,Ht,[2],37.5%
same,Lym,[2],76%
same,MCH,[2],20.9 pg
same,MCHC,[2],33.8%
same,MCV,[2],61.8 fL
same,Mono,[2],2%
same,Neu,[2],21%
same,PT,[2],14.1 s
same,Plat,[2],112.4 x10_4/uL
same,RBC,[2],606.8 x10_4/ul
same,Ret,[2],9.1%
same,WBC,[2],56.3 x10_2/uL
same,KIDNEY_L,[2],0.8 g
same,KIDNEY_R,[2],0.8 g
same,KIDNEY_TOTAL,[2],1.7 g
same,LIVER,[2],7.1 g
same,ALP,[2],1578.4 IU/L
same,ALT,[2],28.4 IU/L
same,AST,[2],67.4 IU/L
same,BUN,[2],9.6 mg/dL
same,CRE,[2],0.2 mg/dL
same,Ca,[2],10.6 mg/dL
same,Cl,[2],106.8 meq/L
same,DBIL,[2],0.016 mg/dL
same,GLC,[2],177.2 mg/dL
same,IP,[2],10.7 mg/dL
same,K,[2],4.1 meq/L
same,LDH,[2],55.4 IU/L
same,Na,[2],142.8 meq/L
same,PL,[2],125.4 mg/dL
same,RALB,[2],2.5 g/dL
same,TBIL,[2],0.066 mg/dL
same,TC,[2],73.8 mg/dL
same,TP,[2],5.3 g/dL
same,gamma-GTP,[2],1.6 IU/L
same,TERMINAL_BW,[3],200.3 g
same,APTT,[3],24.4 s
same,Bas,[3],0%
same,Eos,[3],1%
same,Fbg,[3],285.8 mg/dL
same,Hb,[3],13 g/dL
same,Ht,[3],38.7%
same,Lym,[3],80.8%
same,MCH,[3],20.8 pg
same,MCHC,[3],33.5%
same,MCV,[3],62 fL
same,Mono,[3],2.4%
same,Neu,[3],15.4%
same,PT,[3],14.5 s
same,Plat,[3],114 x10_4/uL
same,RBC,[3],624.4 x10_4/ul
same,Ret,[3],5.5%
same,WBC,[3],30.3 x10_2/uL
same,KIDNEY_L,[3],0.9 g
same,KIDNEY_R,[3],0.9 g
same,KIDNEY_TOTAL,[3],1.8 g
same,LIVER,[3],8.4 g
same,ALP,[3],1583 IU/L
same,ALT,[3],36.8 IU/L
same,AST,[3],68.8 IU/L
same,BUN,[3],14 mg/dL
same,CRE,[3],0.2 mg/dL
same,Ca,[3],11 mg/dL
same,Cl,[3],106 meq/L
same,DBIL,[3],0.026 mg/dL
same,GLC,[3],176.4 mg/dL
same,IP,[3],8.3 mg/dL
same,K,[3],4.4 meq/L
same,LDH,[3],101.8 IU/L
same,Na,[3],140.4 meq/L
same,PL,[3],143.2 mg/dL
same,RALB,[3],2.5 g/dL
same,TBIL,[3],0.066 mg/dL
same,TC,[3],79.4 mg/dL
same,TP,[3],5.4 g/dL
same,gamma-GTP,[3],1 IU/L
same,TERMINAL_BW,[4],193.2 g
same,APTT,[4],16.8 s
same,Bas,[4],0%
same,Eos,[4],0.8%
same,Fbg,[4],274.6 mg/dL
same,Hb,[4],12.8 g/dL
same,Ht,[4],38.2%
same,Lym,[4],77.6%
same,MCH,[4],21.2 pg
same,MCHC,[4],33.3%
same,MCV,[4],63.5 fL
same,Mono,[4],2.8%
same,Neu,[4],18%
same,PT,[4],14 s
same,Plat,[4],118.8 x10_4/uL
same,RBC,[4],602 x10_4/ul
same,Ret,[4],9.4%
same,WBC,[4],95.6 x10_2/uL
same,KIDNEY_L,[4],0.9 g
same,KIDNEY_R,[4],0.9 g
same,KIDNEY_TOTAL,[4],1.7 g
same,LIVER,[4],8 g
same,ALP,[4],1465.2 IU/L
same,ALT,[4],33.2 IU/L
same,AST,[4],72 IU/L
same,BUN,[4],11.2 mg/dL
same,CRE,[4],0.2 mg/dL
same,Ca,[4],10.9 mg/dL
same,Cl,[4],105.2 meq/L
same,DBIL,[4],0.018 mg/dL
same,GLC,[4],176 mg/dL
same,IP,[4],8.6 mg/dL
same,K,[4],4.1 meq/L
same,LDH,[4],75.6 IU/L
same,Na,[4],140 meq/L
same,PL,[4],136.8 mg/dL
same,RALB,[4],2.5 g/dL
same,TBIL,[4],0.064 mg/dL
same,TC,[4],71 mg/dL
same,TP,[4],5.3 g/dL
same,gamma-GTP,[4],1 IU/L
same,TERMINAL_BW,[5],185.5 g
same,APTT,[5],17.1 s
same,Bas,[5],0%
same,Eos,[5],1%
same,Fbg,[5],284.8 mg/dL
same,Hb,[5],13.2 g/dL
same,Ht,[5],39.4%
same,Lym,[5],71.4%
same,MCH,[5],20.6 pg
same,MCHC,[5],33.6%
same,MCV,[5],61.3 fL
same,Mono,[5],2.4%
same,Neu,[5],25%
same,PT,[5],14.2 s
same,Plat,[5],119.4 x10_4/uL
same,RBC,[5],643 x10_4/ul
same,Ret,[5],9%
same,WBC,[5],86.7 x10_2/uL
same,KIDNEY_L,[5],0.8 g
same,KIDNEY_R,[5],0.8 g
same,KIDNEY_TOTAL,[5],1.7 g
same,LIVER,[5],6.9 g
same,ALP,[5],1365.8 IU/L
same,ALT,[5],34.8 IU/L
same,AST,[5],76.8 IU/L
same,BUN,[5],12 mg/dL
same,CRE,[5],0.2 mg/dL
same,Ca,[5],10.8 mg/dL
same,Cl,[5],107 meq/L
same,DBIL,[5],0.012 mg/dL
same,GLC,[5],184.4 mg/dL
same,IP,[5],10.2 mg/dL
same,K,[5],4.5 meq/L
same,LDH,[5],64.8 IU/L
same,Na,[5],143.2 meq/L
same,PL,[5],138.8 mg/dL
same,RALB,[5],2.5 g/dL
same,TBIL,[5],0.062 mg/dL
same,TC,[5],77.4 mg/dL
same,TP,[5],5.5 g/dL
same,gamma-GTP,[5],1.2 IU/L
same,TERMINAL_BW,[6],190.2 g
same,APTT,[6],16.2 s
same,Bas,[6],0%
same,Eos,[6],0.8%
same,Fbg,[6],293.4 mg/dL
same,Hb,[6],13.1 g/dL
same,Ht,[6],39.2%
same,Lym,[6],79.4%
same,MCH,[6],20.5 pg
same,MCHC,[6],33.5%
same,MCV,[6],61.1 fL
same,Mono,[6],1.8%
same,Neu,[6],17.8%
same,PT,[6],14 s
same,Plat,[6],117.6 x10_4/uL
same,RBC,[6],642.6 x10_4/ul
same,Ret,[6],8.1%
same,WBC,[6],50.7 x10_2/uL
same,KIDNEY_L,[6],0.8 g
same,KIDNEY_R,[6],0.8 g
same,KIDNEY_TOTAL,[6],1.7 g
same,LIVER,[6],7.2 g
same,ALP,[6],1219.4 IU/L
same,ALT,[6],26.2 IU/L
same,AST,[6],67.6 IU/L
same,BUN,[6],13 mg/dL
same,CRE,[6],0.2 mg/dL
same,Ca,[6],10.7 mg/dL
same,Cl,[6],106.6 meq/L
same,DBIL,[6],0.014 mg/dL
same,GLC,[6],185.2 mg/dL
same,IP,[6],10.5 mg/dL
same,K,[6],4.2 meq/L
same,LDH,[6],57.8 IU/L
same,Na,[6],142.6 meq/L
same,PL,[6],136.6 mg/dL
same,RALB,[6],2.6 g/dL
same,TBIL,[6],0.066 mg/dL
same,TC,[6],78.2 mg/dL
same,TP,[6],5.4 g/dL
same,gamma-GTP,[6],1.4 IU/L
same,TERMINAL_BW,[7],187.2 g
same,APTT,[7],16.8 s
same,Bas,[7],0.2%
same,Eos,[7],1.4%
same,Fbg,[7],285.2 mg/dL
same,Hb,[7],13.3 g/dL
same,Ht,[7],39%
same,Lym,[7],63.8%
same,MCH,[7],21 pg
same,MCHC,[7],34.1%
same,MCV,[7],61.6 fL
same,Mono,[7],2.8%
same,Neu,[7],31.8%
same,PT,[7],14.3 s
same,Plat,[7],100.5 x10_4/uL
same,RBC,[7],634 x10_4/ul
same,Ret,[7],5%
same,WBC,[7],18 x10_2/uL
same,KIDNEY_L,[7],0.9 g
same,KIDNEY_R,[7],0.9 g
same,KIDNEY_TOTAL,[7],1.8 g
same,LIVER,[7],7.4 g
same,ALP,[7],1374 IU/L
same,ALT,[7],27.8 IU/L
same,AST,[7],67.8 IU/L
same,BUN,[7],17 mg/dL
same,CRE,[7],0.2 mg/dL
same,Ca,[7],10.5 mg/dL
same,Cl,[7],107 meq/L
same,DBIL,[7],0.02 mg/dL
same,GLC,[7],178.8 mg/dL
same,IP,[7],9 mg/dL
same,K,[7],4.6 meq/L
same,LDH,[7],55.2 IU/L
same,Na,[7],142 meq/L
same,PL,[7],138.2 mg/dL
same,RALB,[7],2.5 g/dL
same,TBIL,[7],0.068 mg/dL
same,TC,[7],86.2 mg/dL
same,TP,[7],5.3 g/dL
same,gamma-GTP,[7],1 IU/L
